From paper PMC5390467, “Novel lead structures with both Plasmodium falciparum gametocytocidal and asexual blood stage activity identified from high throughput compound screening” (Malaria Journal, 2017)
Several values for one entry are separate records, joined by “and”; a condition that tells them apart may be missing. Equal entries are not always repeated.

Key:
[1] = system: P. falciparum NF54 asexual parasites; experiment: asexual parasite growth inhibition assay (SYBR Green); type: cell-based, Plasmodium falciparum; conditions: 72 h, mean ± SD, n = 3
Description: Asexual parasites of P. falciparum strain NF54 were cultured as described previously. Briefly, parasites were maintained in RPMI 1640 medium containing 10% positive human serum + erythrocytes (5% haematocrit), 2.5% sodium bicarbonate and 11 µg/mL gentamicin at 37 °C with 5% CO2, 5% O2 and 90% N2. Gametocyte cultures were set up at 0.1% parasitaemia and on days 9–10 treated with 50 mM N-acetylglucosamine (NAG) to block further asexual growth. Stage III–V gametocytes were isolated by Percoll density gradient centrifugation on day 12 and returned to culture for 24 h before being used in the assay. At the time of the assay over 73% of the gametocytes were stage IV or V (Additional file 1). HepG2 cells (ATCC, cat. no. 77400) were cultured in 175-cm^2 tissue culture flasks with 30 ml growth medium at 37 °C in a 5% CO2 and 5% O2 humidified atmosphere. Growth medium was made with Dulbecco’s Modified Eagle Medium with 10% fetal bovine serum (FBS). Growth medium was replaced every other day and cells were passaged at 75% confluence.
Drug activity on asexual stage parasites was tested using a SYBR Green assay as described previously. Briefly, 2.5 μL/well complete culture medium was dispensed into each well of 1536-well plates using the Multidrop Combi followed by 23 nL compound transferring using the NX-TR Pintool. Parasites were diluted to 0.5% parasitaemia in complete culture medium with 2% haematocrit and drugs diluted in DMSO (≤0.5%). The pre-diluted parasites were dispensed into a 1536-well plate (2.5 μL/well). After 72 h incubation under the standard culture conditions, 5 μL/well of lysis buffer containing SYBR Green I was added to the parasite culture and incubated for 30 min at room temperature. The fluorescence of each well was measured in a fluorescence detection mode (Ex = 490 nm, Em = 520 nm) using a ViewLux plate reader (PerkinElmer).

[2] = target: T1, ABL1(Q252H)-phosphorylated (Homo sapiens, UniProt P00519, Q252H); experiment: Kinome scan profile; type: binding; conditions: 10 μM
T1 construct: purchased DiscoverX (KINOMEscan)

[3] = target: T2, SNRK (Homo sapiens, UniProt Q9NRH2); experiment: Kinome scan profile; type: binding; conditions: 10 μM
T2 construct: purchased DiscoverX (KINOMEscan)
T2 sequence (Q9NRH2 1-765): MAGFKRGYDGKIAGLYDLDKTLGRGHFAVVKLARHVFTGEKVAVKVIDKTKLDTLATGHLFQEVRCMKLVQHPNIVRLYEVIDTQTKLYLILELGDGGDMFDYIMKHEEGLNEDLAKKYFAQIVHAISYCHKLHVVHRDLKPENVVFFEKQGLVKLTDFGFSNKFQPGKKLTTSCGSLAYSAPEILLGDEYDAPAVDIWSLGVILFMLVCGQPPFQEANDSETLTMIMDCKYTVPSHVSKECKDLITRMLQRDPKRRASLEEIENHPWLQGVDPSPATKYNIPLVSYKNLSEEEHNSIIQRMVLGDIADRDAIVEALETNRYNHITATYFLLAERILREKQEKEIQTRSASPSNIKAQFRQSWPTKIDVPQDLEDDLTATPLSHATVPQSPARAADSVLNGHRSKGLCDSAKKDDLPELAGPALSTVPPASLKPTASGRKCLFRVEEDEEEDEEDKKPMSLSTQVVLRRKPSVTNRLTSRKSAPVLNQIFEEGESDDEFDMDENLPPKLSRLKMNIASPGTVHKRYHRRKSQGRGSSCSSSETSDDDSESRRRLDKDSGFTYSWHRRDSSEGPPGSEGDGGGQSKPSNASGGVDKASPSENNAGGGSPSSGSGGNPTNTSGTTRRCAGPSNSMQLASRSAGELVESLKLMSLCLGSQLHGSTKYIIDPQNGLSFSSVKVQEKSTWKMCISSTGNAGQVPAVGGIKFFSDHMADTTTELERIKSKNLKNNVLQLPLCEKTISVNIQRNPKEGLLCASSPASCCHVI

[4] = target: T3, ALK(C1156Y) (Homo sapiens, UniProt Q9UM73, C1156Y); experiment: Kinome scan profile; type: binding; conditions: 10 μM
T3 construct: purchased DiscoverX (KINOMEscan)
T3 sequence (Q9UM73 19-1620 C1156Y): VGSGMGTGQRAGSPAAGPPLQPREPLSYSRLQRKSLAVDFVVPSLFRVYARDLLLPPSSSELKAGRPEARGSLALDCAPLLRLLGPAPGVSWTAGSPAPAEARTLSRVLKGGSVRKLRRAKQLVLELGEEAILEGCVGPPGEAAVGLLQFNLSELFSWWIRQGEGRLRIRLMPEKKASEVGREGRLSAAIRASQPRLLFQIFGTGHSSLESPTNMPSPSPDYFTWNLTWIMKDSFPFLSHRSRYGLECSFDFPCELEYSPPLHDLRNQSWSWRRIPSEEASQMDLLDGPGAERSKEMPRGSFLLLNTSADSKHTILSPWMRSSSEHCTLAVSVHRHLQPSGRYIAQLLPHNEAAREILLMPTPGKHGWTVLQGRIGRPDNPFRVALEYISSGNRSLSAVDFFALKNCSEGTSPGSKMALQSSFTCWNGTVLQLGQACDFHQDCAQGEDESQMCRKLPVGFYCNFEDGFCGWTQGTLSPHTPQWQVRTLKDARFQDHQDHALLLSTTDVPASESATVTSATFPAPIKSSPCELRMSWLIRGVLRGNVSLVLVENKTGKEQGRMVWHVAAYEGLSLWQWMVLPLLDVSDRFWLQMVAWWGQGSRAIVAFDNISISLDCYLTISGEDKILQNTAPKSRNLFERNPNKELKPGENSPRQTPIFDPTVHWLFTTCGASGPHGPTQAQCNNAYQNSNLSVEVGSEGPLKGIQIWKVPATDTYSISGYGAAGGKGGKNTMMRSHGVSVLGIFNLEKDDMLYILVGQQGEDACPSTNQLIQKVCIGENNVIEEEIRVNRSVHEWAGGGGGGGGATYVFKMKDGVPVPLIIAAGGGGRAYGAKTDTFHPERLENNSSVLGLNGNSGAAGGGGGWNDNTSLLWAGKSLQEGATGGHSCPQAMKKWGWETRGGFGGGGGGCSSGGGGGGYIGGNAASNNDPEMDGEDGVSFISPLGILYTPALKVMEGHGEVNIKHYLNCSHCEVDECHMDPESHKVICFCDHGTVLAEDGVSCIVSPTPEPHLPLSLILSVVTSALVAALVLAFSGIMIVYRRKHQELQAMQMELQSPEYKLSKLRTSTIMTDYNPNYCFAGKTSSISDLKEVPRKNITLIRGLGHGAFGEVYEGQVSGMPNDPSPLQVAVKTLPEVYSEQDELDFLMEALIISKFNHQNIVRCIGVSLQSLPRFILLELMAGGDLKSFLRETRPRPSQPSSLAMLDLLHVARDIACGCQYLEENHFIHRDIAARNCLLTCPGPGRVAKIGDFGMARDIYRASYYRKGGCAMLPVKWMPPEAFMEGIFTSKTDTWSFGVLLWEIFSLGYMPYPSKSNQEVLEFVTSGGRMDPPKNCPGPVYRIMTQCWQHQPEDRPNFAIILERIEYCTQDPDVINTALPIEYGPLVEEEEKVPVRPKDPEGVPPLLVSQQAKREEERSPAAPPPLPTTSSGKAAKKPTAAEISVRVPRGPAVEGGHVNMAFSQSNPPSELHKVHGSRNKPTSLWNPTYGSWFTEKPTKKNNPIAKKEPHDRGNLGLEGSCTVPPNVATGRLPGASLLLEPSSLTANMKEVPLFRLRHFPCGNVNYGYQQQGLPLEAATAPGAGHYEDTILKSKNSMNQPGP

[5] = target: T4, KIT(A829P) (Homo sapiens, UniProt P10721, A829P); experiment: Kinome scan profile; type: binding; conditions: 10 μM
T4 construct: purchased DiscoverX (KINOMEscan)
T4 sequence (P10721 26-976 A829P): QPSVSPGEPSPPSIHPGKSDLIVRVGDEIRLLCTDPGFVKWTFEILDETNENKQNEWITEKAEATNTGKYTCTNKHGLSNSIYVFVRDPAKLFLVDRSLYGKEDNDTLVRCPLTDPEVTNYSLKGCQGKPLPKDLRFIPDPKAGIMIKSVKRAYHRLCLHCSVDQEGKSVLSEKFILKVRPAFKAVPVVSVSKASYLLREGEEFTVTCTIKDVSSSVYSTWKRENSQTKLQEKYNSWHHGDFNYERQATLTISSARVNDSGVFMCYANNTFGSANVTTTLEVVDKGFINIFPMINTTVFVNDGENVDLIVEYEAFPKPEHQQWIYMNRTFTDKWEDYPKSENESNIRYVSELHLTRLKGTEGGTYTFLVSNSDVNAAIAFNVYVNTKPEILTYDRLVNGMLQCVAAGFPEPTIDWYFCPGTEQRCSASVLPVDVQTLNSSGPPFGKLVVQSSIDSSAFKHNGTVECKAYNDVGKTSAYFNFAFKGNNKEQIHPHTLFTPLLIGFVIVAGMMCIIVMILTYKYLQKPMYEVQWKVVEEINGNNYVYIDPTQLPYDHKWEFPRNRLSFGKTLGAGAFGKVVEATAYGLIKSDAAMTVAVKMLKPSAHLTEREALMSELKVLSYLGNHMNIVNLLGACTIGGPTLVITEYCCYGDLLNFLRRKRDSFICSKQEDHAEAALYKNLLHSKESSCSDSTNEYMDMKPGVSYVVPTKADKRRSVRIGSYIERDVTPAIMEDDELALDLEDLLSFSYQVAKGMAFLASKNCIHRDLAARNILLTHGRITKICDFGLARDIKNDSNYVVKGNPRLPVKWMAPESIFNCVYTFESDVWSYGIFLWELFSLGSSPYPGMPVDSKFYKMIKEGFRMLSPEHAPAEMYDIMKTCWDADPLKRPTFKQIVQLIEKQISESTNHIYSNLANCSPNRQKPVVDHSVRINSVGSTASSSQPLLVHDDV

[6] = target: T5, MAP3K3 (Homo sapiens, UniProt Q99759); experiment: Kinome scan profile; type: binding; conditions: 10 μM
T5 construct: purchased DiscoverX (KINOMEscan)
T5 sequence (Q99759 1-626): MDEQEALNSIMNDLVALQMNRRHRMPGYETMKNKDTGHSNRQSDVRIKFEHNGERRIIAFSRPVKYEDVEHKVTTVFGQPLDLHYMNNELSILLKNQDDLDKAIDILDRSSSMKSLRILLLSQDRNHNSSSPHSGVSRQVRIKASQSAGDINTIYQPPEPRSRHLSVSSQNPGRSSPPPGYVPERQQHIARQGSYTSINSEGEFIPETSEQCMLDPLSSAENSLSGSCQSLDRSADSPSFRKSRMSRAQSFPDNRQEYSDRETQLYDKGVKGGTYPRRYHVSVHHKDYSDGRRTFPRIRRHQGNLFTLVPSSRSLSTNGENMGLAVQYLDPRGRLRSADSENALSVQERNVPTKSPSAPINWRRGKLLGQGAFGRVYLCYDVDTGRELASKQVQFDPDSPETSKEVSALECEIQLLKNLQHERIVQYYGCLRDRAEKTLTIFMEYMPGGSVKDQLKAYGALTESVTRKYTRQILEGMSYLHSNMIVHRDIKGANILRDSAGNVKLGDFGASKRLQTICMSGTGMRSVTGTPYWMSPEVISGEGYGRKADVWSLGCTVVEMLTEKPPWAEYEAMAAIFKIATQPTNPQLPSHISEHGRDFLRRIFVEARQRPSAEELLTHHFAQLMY

- IC50 [1]: 339 nM and 340 nM
- % Control, ABL1(Q252H)-phosphorylated [2]: 9.9 % Control
- % Control, SNRK [3]: 27 % Control
- % Control, ALK(C1156Y) [4]: 28 % Control
- % Control, KIT(A829P) [5]: 34 % Control
- % Control, MAP3K3 [6]: 34 % Control
Structure (SMILES): CCN1CCN(Cc2c(O)ccc3c(=O)c(Oc4ccccc4C(C)C)c(C(F)(F)F)oc23)CC1 [NCGC00100599]
